From PubChem BioAssay (NCI) come the findings set out here.

Each structure is given as a SMILES string. Values joined by “and” are separate entries in the source; they are usually repeats but may differ in a detail not shown here. Identical values can stand only once.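 1) Cells in 96-well plates. 2) Compound, 48 h, 5 concentrations. 3) Linear interpolation between surrounding doses. 4) Unreached endpoint = highest concentration. Abbreviation: GI50, concentration required for 50% inhibition of growth. At the TGI there is no net growth.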

Some test systems named below: DU-145 prostate; M14 melanoma; NCI-H460 lung; NCI-H226 lung; SW-620 colon; TK-10 renal; UACC-257 melanoma; SNB-75 CNS; NCI-H522 lung; MDA-MB-231 breast.
What all share (experiment): NCI tumour cell line growth inhibition, 48 h

Consider `C1=C\SS/C=C\SS/1`, for which the TGI in the test on DU-145 prostate was greater than 100 µM; in the test with M14 melanoma, greater than 100 µM; in the test on NCI-H460 lung it was 80 µM; in the test on NCI-H226 lung, greater than 100 µM; in the test on SW-620 colon, greater than 100 µM; with TK-10 renal, greater than 100 µM. In the test with UACC-257 melanoma, this compound returned a TGI greater than 100 µM.

As to `CN(C)CC1CCC(CN(C)C)C1=O` (centres undefined), the TGI is 7.38 µM in the test on M14 melanoma; 45.6 µM in the test on NCI-H460 lung; 38.8 µM in the test on NCI-H226 lung; 10.4 µM in the test on SW-620 colon; 37.2 µM with SNB-75 CNS; 0.359 µM in the test on NCI-H522 lung. For the same compound, the TGI in the test on TK-10 renal worked out at 28.2 µM; with MDA-MB-231 breast, 4.18 µM; in the test with UACC-257 melanoma, 17.6 µM.

Take `CCCSc1nc(-c2ccc(OC)cc2)c(C#N)c(=O)n1C1OC(COC(C)=O)C(OC(C)=O)C(OC(C)=O)C1OC(C)=O` (centres undefined): the GI50 with M14 melanoma is > 100 µM and 23.1 µM; with UACC-257 melanoma, > 100 µM and 22.4 µM. Further, the TGI in the test with M14 melanoma is > 100 µM and 50.2 µM; in the test with NCI-H460 lung, greater than 100 µM; in the test on SNB-75 CNS it was greater than 100 µM; in the test with NCI-H522 lung, greater than 100 µM; in the test on UACC-257 melanoma it was > 100 µM and 56.6 µM.

Regarding `NS(=O)(=O)c1cccc(NC(=S)NC(=O)Nc2ccc(Cl)c(Cl)c2)c1`, the TGI in the test with DU-145 prostate turned out to be 97.9 µM; in the test with M14 melanoma, 28.2 µM; with NCI-H460 lung, 44.6 µM; in the test on SW-620 colon, 37.9 µM; in the test with SNB-75 CNS, 54.9 µM; with NCI-H522 lung, 28.6 µM. In addition, the figures for the TGI in the test on TK-10 renal, in the test with MDA-MB-231 breast and with UACC-257 melanoma were greater than 100 µM, 38.5 µM and greater than 100 µM, respectively.

Turning to `Nc1nn2c(=O)c3ccccc3nc2s1`, the TGI was greater than 100 µM in the test on DU-145 prostate; 93.8 µM with M14 melanoma; greater than 100 µM in the test on NCI-H460 lung; 91.1 µM with NCI-H226 lung; 38.5 µM in the test with SW-620 colon; greater than 100 µM with SNB-75 CNS. For the same compound, the TGI in the test with NCI-H522 lung was 50.3 µM; in the test on TK-10 renal, greater than 100 µM; with UACC-257 melanoma, greater than 100 µM.

Consider `O=C(N/N=C/c1ccc(Br)cc1)N/N=C/c1ccc(Br)cc1`, for which the TGI in the test on DU-145 prostate is greater than 100 µM; in the test with M14 melanoma, 32.4 µM; in the test with NCI-H226 lung it was 22.9 µM; in the test with SW-620 colon, 30.7 µM; in the test on TK-10 renal, 5.39 µM; in the test with MDA-MB-231 breast, 16.2 µM. For the same compound, the TGI with UACC-257 melanoma amounted to 40.2 µM.

On to `COc1cc(NC(C)=O)ccc1C(=O)NN1C(=O)/C(=C/c2ccco2)N=C1c1ccccc1`, for which the TGI in the test with DU-145 prostate, in the test with M14 melanoma, in the test with SW-620 colon, in the test with SNB-75 CNS and in the test with NCI-H522 lung was greater than 50 µM in each case.

Consider `CN(C)CCC(=O)/C=C\c1ccccc1`, for which the TGI in the test on M14 melanoma is 30.4 µM; in the test on NCI-H460 lung it was 37.5 µM; in the test on NCI-H226 lung, 49.3 µM; in the test on SW-620 colon, 35.8 µM; with SNB-75 CNS, greater than 100 µM; in the test on NCI-H522 lung it was 39.3 µM. Further, the TGI stood at 32.9 µM in the test on TK-10 renal and 31.5 µM with UACC-257 melanoma.

With `O=C1NCN(c2ccccc2)C12CCN(CCCN1CCN(CCOC(c3ccc(F)cc3)c3ccc(F)cc3)CC1)CC2`, the TGI in the test with DU-145 prostate worked out at 3.34 µM; in the test with M14 melanoma, 3.48 µM; with NCI-H460 lung, 4.32 µM; in the test on NCI-H226 lung it was 3.84 µM; in the test on SW-620 colon it was 7.87 µM; in the test on NCI-H522 lung it was 3.69 µM. For the same compound, the TGI was 3.2 µM in the test on TK-10 renal, 4.43 µM in the test on MDA-MB-231 breast and 3.44 µM in the test with UACC-257 melanoma.

Consider `COc1ccc(CC2COc3cc(O)cc(O)c3C2=O)cc1O` (centres undefined), for which the TGI in the test with DU-145 prostate was 68.1 µM; in the test on M14 melanoma, greater than 100 µM; with NCI-H460 lung it was greater than 100 µM; in the test on SW-620 colon it was greater than 100 µM; in the test with SNB-75 CNS, 6.98 µM; in the test with NCI-H522 lung, greater than 100 µM. Also, the TGI in the test on TK-10 renal, in the test on MDA-MB-231 breast and in the test on UACC-257 melanoma was greater than 100 µM each time.

As to `COc1ccc(C2c3cc4c(cc3OC(N3CCOCC3)C2C)OCO4)c(OC)c1OC` (centres undefined), the TGI in the test on M14 melanoma was 33.5 µM; in the test with NCI-H460 lung, 51.3 µM; in the test on SW-620 colon, greater than 100 µM; in the test on NCI-H522 lung it was 29.7 µM; in the test with TK-10 renal it was 70.5 µM; in the test on UACC-257 melanoma, 82.2 µM.

`CCOC(=O)C#Cc1ccccc1`: the TGI in the test on DU-145 prostate is greater than 100 µM; with M14 melanoma, 39.1 µM; in the test on NCI-H460 lung it was greater than 100 µM; with NCI-H226 lung, greater than 100 µM; in the test with SW-620 colon, 31.2 µM; with TK-10 renal, 59.9 µM. The figures for the TGI in the test on MDA-MB-231 breast and in the test with UACC-257 melanoma were 95.1 µM and greater than 100 µM, respectively.

Take `CCOC(=O)C1CCC(=O)N1C(=O)c1ccccc1` (centres undefined): the TGI in the test with DU-145 prostate, with M14 melanoma, in the test with NCI-H460 lung, in the test on NCI-H226 lung, in the test on SW-620 colon and in the test on NCI-H522 lung was greater than 100 µM throughout. The TGI in the test on TK-10 renal, in the test on MDA-MB-231 breast and with UACC-257 melanoma was greater than 100 µM throughout.

For `CCOC(=O)c1nc2cc(C(F)(F)F)ccc2nc1Nc1ccc(C(=O)NC(C(=O)OCC)C(=O)OCC)cc1`, the TGI is greater than 100 µM with DU-145 prostate; greater than 100 µM with NCI-H460 lung; 34.8 µM with NCI-H226 lung; greater than 100 µM with SW-620 colon; 40.3 µM with NCI-H522 lung; 97.4 µM in the test with TK-10 renal. Moreover, the TGI with MDA-MB-231 breast came to 50.4 µM; with UACC-257 melanoma, 51.9 µM.

`CN(C)CCNC(=O)c1cccc2nc(-c3ccccc3)oc12`: the TGI in the test with NCI-H460 lung is greater than 100 µM; with NCI-H226 lung, 84 µM; with SW-620 colon it was greater than 100 µM; with SNB-75 CNS, greater than 100 µM; with UACC-257 melanoma, 98.1 µM.

Consider `COc1ccc(N(C(=O)Nc2ccc(Cl)c(Cl)c2)C2c3cccn3C(=O)N2c2ccc(Cl)c(Cl)c2)cc1` (centres undefined), for which the TGI in the test on DU-145 prostate, with M14 melanoma, in the test with NCI-H460 lung, in the test with NCI-H226 lung, in the test on SW-620 colon and in the test on TK-10 renal was greater than 100 µM throughout. Moreover, the TGI in the test on MDA-MB-231 breast and with UACC-257 melanoma was greater than 100 µM throughout.

`CO[C@]12C[C@H](CNC(=O)c3ccc[nH]3)O[C@H]1NC(=O)N2`: the TGI in the test on DU-145 prostate, in the test on M14 melanoma, in the test with NCI-H460 lung, in the test with NCI-H226 lung, in the test on SW-620 colon and in the test with NCI-H522 lung was greater than 100 µM each time. The TGI in the test with TK-10 renal, in the test on MDA-MB-231 breast and in the test on UACC-257 melanoma was greater than 100 µM in each case.

As to `O=C(C(Cl)=C(N1CCOCC1)N1CCOCC1)C(Cl)Cl`, the TGI with DU-145 prostate, with M14 melanoma, with NCI-H460 lung, in the test on NCI-H226 lung, with SW-620 colon and with NCI-H522 lung was greater than 100 µM in each case. The TGI in the test on TK-10 renal, in the test on MDA-MB-231 breast and in the test on UACC-257 melanoma was greater than 100 µM in each case.

As for `Cc1ccc(/C=C2\Cc3c(C)cc(C)cc3C2=O)c(C(=O)O)c1`, the TGI is greater than 100 µM with DU-145 prostate; greater than 100 µM in the test with M14 melanoma; greater than 100 µM in the test on NCI-H460 lung; 71.4 µM in the test with NCI-H226 lung; greater than 100 µM with SW-620 colon; greater than 100 µM in the test on SNB-75 CNS. Moreover, the TGI with NCI-H522 lung, in the test on TK-10 renal and with UACC-257 melanoma was greater than 100 µM throughout.

Take `CCON1CC(C(=O)OC)=C(O)C1=O`: the TGI in the test with DU-145 prostate, with M14 melanoma, in the test on NCI-H460 lung, with SW-620 colon, with SNB-75 CNS and in the test with NCI-H522 lung was greater than 100 µM in each case. For the same compound, the TGI in the test on TK-10 renal, in the test on MDA-MB-231 breast and in the test with UACC-257 melanoma was greater than 100 µM in each case.

For `CC1(C)[C@H]2CC[C@@]13C(=O)N1C(=O)O[C@@H]([C@H]1Cl)C(Cl)(COCc1ccccc1)C(=O)OCCO[C@H]3C2` (some centres undefined), the TGI in the test on M14 melanoma, in the test on NCI-H460 lung, in the test on SW-620 colon, in the test with SNB-75 CNS, with NCI-H522 lung and in the test on UACC-257 melanoma was greater than 100 µM throughout.

For the compound `CC(=O)OCc1c(O)c2c(c(O)c1COC(C)=O)C(=O)C=CC2=O`, the TGI was determined as 23.7 µM in the test with M14 melanoma; 32.5 µM in the test on NCI-H226 lung; 14.3 µM in the test on SW-620 colon; 33.2 µM in the test on SNB-75 CNS; 30 µM in the test on TK-10 renal; 20.1 µM in the test with UACC-257 melanoma.

Regarding `CCOC(=O)/C(O)=C1\C(=O)N(C)C(=O)C1c1cccc(OC)c1` (centres undefined), the TGI in the test on NCI-H460 lung, in the test with NCI-H226 lung, with SW-620 colon, with SNB-75 CNS, in the test on NCI-H522 lung and with UACC-257 melanoma was greater than 100 µM in each case.

In the case of `COC(=O)C1=Nc2c(C)nn(-c3ccccc3)c2N=C(c2ccccc2)C1`, the TGI with DU-145 prostate, in the test with M14 melanoma, with SW-620 colon, in the test on SNB-75 CNS, in the test on NCI-H522 lung and with TK-10 renal was greater than 10 µM each time. Moreover, the TGI in the test on MDA-MB-231 breast and in the test on UACC-257 melanoma was greater than 10 µM throughout.

`COC(=O)[C@H](Cc1ccccc1)NC(=O)CCCCCCC(=O)NO`: the TGI in the test on DU-145 prostate is 38.5 µM; in the test on M14 melanoma it was greater than 100 µM; with NCI-H460 lung it was 86 µM; with NCI-H226 lung, greater than 100 µM; in the test with SW-620 colon, greater than 100 µM; in the test with NCI-H522 lung it was 30.6 µM. The values for the TGI in the test on TK-10 renal, in the test on MDA-MB-231 breast and in the test on UACC-257 melanoma were 72.5 µM, 65.3 µM and 45.4 µM, respectively.
